Measurements published in patent US20110263694A1, “Use of Xanthone Derivatives as a Medicament for Cancer” (MUSEUM NATIONAL D'HISTOIRE NATURELLE, priority 2008, published 2011).

Legend:
ESKOL cells [1] = assay: Antiproliferative effect on ESKOL cells (viable cell count, Coulter counter); assay type: cell-based, human; conditions: 1 and 10 μg/ml; 1, 2 or 4 days; FIGS. 1A and 1B
Experimental: FIG. 1: The antiproliferative effects of M1, M2, M4, M5 and M6 were compared as indicated in the Examples Section on ESKOL cells. ESKOL cells were seeded at 2×10^5 cells/ml in the wells of micro-titration plate in the presence or absence (medium alone: ◯, DMSO: […]) of M1 (□), M2 (▪), M4 (▴), M5 ([…]), M6 (◯) at the concentrations of 1 μg/ml (A) and 10 μg/ml (B). After various times of incubation (1, 2 or 4 days), aliquots were harvested and the concentration of viable cells was measured in a Coulter counter as indicated in the examples.
The anti-proliferative effects of the isolated molecules were investigated on the ESKOL cell line derived from a hairy cell leukemia patient, a chronic B cell malignancy (Harvey et al, Leuk Res. 1991; 15: 733-744).
Cells were routinely cultured at seeding densities of 2×10^6 cells/ml in RPMI-1640 medium supplemented with 2 mM glutamine, 1 mM sodium pyruvate, 100 IU/ml penicillin, 100 μg/ml streptomycin and 10% FCS (PAA Laboratories, Pasching, Austria) and cultures were performed at 37° C. in an humidified atmosphere containing 5% CO2.
For the assay, ESKOL cells were seeded at 2×10^5/ml in 24-well microtitration plate, together with two concentrations (1 and 10 μg/ml) of the […] xanthones or 1% DMSO (solvent) as control. After 1, 2 and 4 days of culture, aliquots of cells were collected and the cell concentration was evaluated by counting the number of viable cells with a Coulter Multisizer counter Z2 (Coultronics, Margency, France) allowing the discrimination between viable and dead cells and debris according to size distribution.
Cells were cultured in duplicates or triplicates and each experiment repeated 2 to 5 times.

ESKOL cells [2] = assay: Annexin V-FITC labelling of ESKOL cells (phosphatidylserine externalisation, flow cytometry); assay type: cell-based, human; conditions: 1 μg/ml, 24 hours; for % Annexin V+ cells: ESKOL cells, after subtraction of control value
Excerpt: The induction of apoptosis was further confirmed by assessing the percentage of cells expressing phosphatidylserine at the outer leaflet of the plasma membrane by flow cytometry.
The phosphatidylserine (PS) externalisation, a membrane marker of cells undergoing apoptosis, was quantified by specific binding of FITC-conjugated annexin V (Bender Medsystems, Vienna, Austria), with or without simultaneous labelling with propidium iodide (PI), according to a modification of the technique described by Koopman (Koopman et al, Blood 1994; 84:1415-1420). The percentages of annexin V-FITC positive and PI negative cells were determined by cytometry on an EPICS Altra flow cytometer (Beckman Coulter).
The ESKOL cells (10^6/ml) were cultured in the absence (C=control) or the presence of 1 μg/ml of the various Allanblackia molecules. After 24 hours of incubation, the percentage of cells labelled with Annexin V-FITC was measured by flow cytometry as previously indicated. Results are expressed after subtraction of the value for control unstimulated cells. P values were estimated by Kolmogorov-Smirnov analysis using the Statview software.

B-CLL cells = assay: MTT viability of freshly isolated B-CLL cells; assay type: cell-based, human; conditions: FIG. 3, 6 B-CLL patients
Experimental: FIG. 3: The effect of the molecules M1, M2, M4, M5 and M6 on the viability of B-CLL cells was determined. Tumour cells freshly isolated from B-CLL patients were suspended at 2×10^6/ml in complete RPMI-1640 medium and incubated for 48 hours in the presence or absence of either 1 μg/ml (black bars) or 10 μg/ml (gray bars) of the various molecules. MTT was incorporated into the cells during the last 5 hours of incubation and the viability was measured by recording the formation of the formazan precipitate as described in the Examples section. The results are expressed as the percentage of the viability of the treated cells in comparison with control cells incubated with medium alone taken as 100% and represent the mean±SE of 6 B-CLL patients.
Blood samples from B-CLL patients were obtained from the Haematology Department of Hôtel-Dieu hospital (Paris, France) after written informed consent, in accordance with the rules and tenets of the revised Helsinki protocol. Diagnosis was established according to standard clinical and international CLL workshop criteria, including lymphocyte morphology and co-expression of CD5, CD20 and CD23 antigens. A total of 12 patients (6 men and 6 women) with an age ranging 50-84 years (mean±SD: 68±8.8 years) were selected and the time since diagnosis varied between 0 (newly diagnosed patients) and 10 years. The patients were randomly chosen for each type of experiment inasmuch as CD38 and ZAP-70 expression, cytogenetic analysis and mutational VH status were only available for a fraction of them, thus hampering a risk-group analysis. The leukemia B-cells were isolated with purity greater than 96%, as previously described (Zhao et al, Blood 1998; 92: 1031-1043). All the experiments were performed with freshly purified B-CLL leukemia cells.
M1, M2, M4, M5 and M6 were thus tested for their possible action on the viability of these leukemia cells by the MTT assay that relies on the integrity of the mitochondrial succinyl dehydrogenase.
(§1) Leukemia cells from B-CLL patients were adjusted at 2×10^6/ml and 200 μl aliquots were distributed in triplicate samples in the wells of a 96-well microtitration plate and cultured in the absence or presence of the various reagents. After 18 hours of incubation at 37° C. in a humidified atmosphere containing 5% CO2, 20 μl of a 5 mg/ml solution of MTT (Sigma, St Louis, Mo., USA) were added to the wells for an additional 6 hours incubation. The microplates were centrifuged at 400×g for 20 min, the supernatants carefully discarded and 200 μl of DMSO were added to the wells to dissolve the precipitates of formazan. The optical density was measured with the use of a microplate reader (Victor-2, Wallac, Perkin Elmer, Norwalk, Mont., USA) at the wavelength of 540 nm.

normal PBMC = assay: MTT cytotoxicity on normal PBMC; assay type: cell-based, human; conditions: 5 or 10 μg/ml, 48 hours; FIG. 5B
Experimental: (§2) FIG. 5: The effect of the compounds M1, M2, M4, M5 and M6 on the viability and apoptosis of normal lymphocytes was evaluated as indicated in the Examples section. A/ PBMC isolated from the blood of normal volunteers were incubated at 2×10^6/ml for 48 hours in the presence of medium alone (grey bar) or containing 1 μg/ml (black bar) or 10 μg/ml (slashed bars) of the different compounds. At the end of the incubation time, the percentage of enrichment in cytoplasmic nucleosomes was evaluated as indicated in the Examples Section. PBMC (A) and purified B lymphocytes (C) from normal blood donors were incubated for 48 hours with medium alone (grey bar) or containing 5 μg/ml (black bar) or 10 μg/ml (slashed bar) of the selected reagents M1, M2, M4 and M6. Viability was estimated after labelling the cells with a 5 hours pulse of MTT and determination of the absorbance at 540 nm as indicated in the Examples Section.
as §1
(§3) Blood samples from healthy donors were obtained from the Institut Francais du Sang as residues from platelet preparations. The healthy blood donors were under 60 years old, according to the French legislation, and therefore they could not be exactly age-matched with the B-CLL patients. PBMC were prepared as described elsewhere (Zhao et al, Blood 1998; 92: 1031-1043) and normal B-lymphocytes were purified by positive selection on anti-CD19-coated magnetic beads according to the specifications of the manufacturer (Dynal, Oslo, Norway) (Kern et al, Blood 2004; 103: 679-688). Their purity usually ranged from 92% to 95%, as estimated by labelling with an anti-CD20-phycoerythrin (PE) antibody, and monocyte contamination never exceeded 2% (Kern et al, Blood 2004; 103: 679-688).

purified B-lymphocytes = assay: MTT cytotoxicity on purified normal B-lymphocytes; assay type: cell-based, human; conditions: 5 or 10 μg/ml, 48 hours; FIG. 5C
Experimental: as §2, §1, §3

ESKOL cells [3] = assay: Enrichment in cytoplasmic nucleosomes (DNA cleavage) in ESKOL cells; assay type: cell-based, human; conditions: 2 days, 1 or 10 μg/ml; FIG. 2B
Experimental: B/ The percentage of enrichment in cytoplasmic nucleosomes was evaluated simultaneously as a surrogate for DNA cleavage.
The detection of cytoplasmic histone-associated DNA fragments (mono- and oligonucleosomes) was performed in cell lysates from aliquots of 20,000 cells using an ELISA with anti-histone and anti-DNA fragment mAbs (Cell Death Detection ELISA^PLUS, Roche Diagnostics, Indianapolis, Ind., USA) as previously described (Billard et al, Leuk Lymphoma 2002; 43: 1991-2002).

Plasmodium = conditions: literature; cited from earlier work
histamine H1 receptor = conditions: Chairungsrilerd et al 1996; cited from earlier work
[4] = tested on: human promyelocytic leukemia HL-60 cell line; conditions: Matsumoto et al 2003; cited from earlier work
[5] = tested on: human colon cancer DLD-1 cells; conditions: Matsumoto 2005; cited from earlier work
[6] = tested on: human A375 melanoma cell line; conditions: Azebaze et al 2006; cited from earlier work
[7] = tested on: human A549 lung cancer cells; conditions: Lee et al 2005, read-out: IC50 cytotoxic activity; cited from earlier work
[8] = tested on: SK-OV3 ovarian cancer cells; conditions: Lee et al 2005, read-out: IC50 cytotoxic activity; cited from earlier work

Molecule | proliferation of ESKOL cells (ESKOL cells [1]) | % Annexin V+ cells (ESKOL cells [2]) [%] | viability of B-CLL cells (MTT) (B-CLL cells; 1 μg/ml) | viability of B-CLL cells (MTT) (B-CLL cells; 10 μg/ml) | cytotoxic effect on normal PBMC (MTT) (normal PBMC) | cytotoxic effect on purified normal B-lymphocytes (MTT) (purified B-lymphocytes) | DNA breakdown (enrichment in cytoplasmic nucleosomes) in ESKOL cells (ESKOL cells [3]) | increase in the percentage of Annexin V positive ESKOL cells (in words) (ESKOL cells [2]) | antiplasmodial activity (Plasmodium) | histamine H1 receptor antagonism (histamine H1 receptor) | apoptosis induction in HL-60 cell line [4] | cell-cycle arrest and apoptosis in DLD-1 cells [5] | cytotoxicity on A375 cell line [6] | IC50 [7] [µM] | IC50 [8] [µM]
COc1ccc2oc3cc(O)c(CC=C(C)C)c(O)c3c(=O)c2c1 [M1, 1,3 dihydroxy-7-methoxy-2(3-methylbut-2enyl)xanthone] | markedly and dose-dependently slowed down the proliferation | 5.6 | no significant effect | marked reduction in the viability | no toxic effect | no toxic effect |  |  |  |  |  |  |  |  | 
COc1c(O)cc2oc3cc(O)c(CC=C(C)C)c(O)c3c(=O)c2c1CC=C(C)C [M2, α-mangostin] | markedly and dose-dependently slowed down the proliferation | 15.0 | no significant effect | marked reduction in the viability | somewhat sensitive | somewhat sensitive | potent inducers of DNA breakdown | significant increase | displays antiplasmodial activity | histamine H1 receptor antagonist | induces apoptosis | induces cell-cycle arrest and apoptosis |  |  | 
CC(C)=CCc1c(O)cc2oc3c(c(=O)c2c1O)C(CC=C(C)C)(CC=C(C)C)C(=O)C(O)=C3 [M4, allanxanthone C] | markedly and dose-dependently slowed down the proliferation | 10.2 | no significant effect | marked reduction in the viability | no toxic effect | no toxic effect | potent inducers of DNA breakdown | to a lesser degree |  |  |  |  |  |  | 
CC(C)=CCC/C(C)=C/Cc1c(O)c(O)cc2oc3cc(O)c(CC=C(C)C)c(O)c3c(=O)c12 [M5, norcowanin] | markedly and dose-dependently slowed down the proliferation | 9.4 | no significant effect | marked reduction in the viability |  |  | potent inducers of DNA breakdown | to a lesser degree | antiplasmodial activity |  |  |  | weak cytotoxicity |  | 
C=CC(C)(C)c1c2c(c(O)c3c(=O)c4ccc(O)c(O)c4oc13)C=CC(C)(C)O2 [M6, Macluraxanthone] | markedly and dose-dependently slowed down the proliferation | 36.5 | no significant effect | marked reduction in the viability | somewhat sensitive | somewhat sensitive | potent inducers of DNA breakdown | significant increase |  |  |  |  |  | 2.88 | 4.24
allanxanthone C [M4] |  |  |  |  |  |  |  |  | displays antiplasmodial activity |  |  |  | cytotoxicity |  | 
